These results are taken from patent EP4813991A1 (iLeadBMS Co., Ltd., priority 2023, dated 2025).

In general, pIC50 refers to −log10 of the IC50, conventionally taken in molar units.

For assay [1], the target named is T1, CDK12 (Homo sapiens, UniProt Q9NYV4). As to the kind of experiment: CDK12 kinase inhibitory activity assay (33P-ATP filter binding). It counts as biochemical. On the procedure:
(§1) Before initiating the CDK12 and CDK13 kinase reactions, each Example compound was dissolved and diluted in DMSO as a solvent across 9 concentration ranges at room temperature. The diluted solutions were then incubated with a mixture of kinase and substrate (and cofactors, if required) for 20 minutes. Next, radioisotope-labeled ATP (^33P-gamma-ATP) was added to proceed with the kinase reaction at room temperature for 120 minutes. After the reaction was completed, the reaction mixture was transferred to a filter paper that binds the radioisotope-labeled catalytic product (^33P-substrate). Unreacted ^33P-ATP was removed by washing with 0.75 % phosphoric acid, and then the radioactive phosphorylated substrate remaining on the filter paper was measured. Kinase activity data were expressed as a percentage of the kinase activity remaining in the test sample compared to a DMSO control group. The half-maximal inhibitory concentration (IC50) for each kinase was calculated using Prism (Graphpad) software.

The target of the next assay is CDK13 (Homo sapiens, UniProt Q14004). As to the kind of experiment: CDK13 kinase inhibitory activity assay (33P-ATP filter binding). It counts as biochemical. Here is the method: as §1
The test system of assay [2] is MDA-MB-231 breast cancer cells. Kind of assay: Proliferation inhibitory activity assay against MDA-MB-231 breast cancer cells. It counts as cell-based. As to conditions: Homo sapiens, 72 hours, CellTiter Glo, relative IC50. On the procedure:
Experiments were performed using the MDA-MB-231 breast cancer cell line to measure the cell proliferation inhibitory ability of each Example compound. MDA-MB-231 cells were dispensed into a 96-well plate at 100 µL of cell suspension per well using L-15 (Invitrogen) medium containing 10 % FBS, followed by incubation in a cell incubator at 37 °C and 0 % CO2. The next day, each Example compound dissolved and diluted in DMSO across 9 concentration ranges and a DMSO control group were treated on the cells for 72 hours. After the compound treatment was completed, 100 µL of CellTiter Glo (Promega) reagent was added to each well of the 96-well plate, followed by shaking for 10 minutes and standing at room temperature for 10 minutes. Luminescence signals were measured after inserting the 96-well plate into an Envision plate reader (PerkinElmer). Relative IC50 values were calculated by fitting a dose-response curve using XLfit (IDBS Ltd) software.
The breast cancer cell proliferation inhibitory activities of the Example compounds measured by the above method were evaluated according to the following criteria, and the results are presented in Table 13.
On the technique in general: In ATP-based viability assays light output follows the ATP content of the culture.

Assay [3] deals with T1, CDK12. As to the kind of experiment: Cellular CDK12 inhibitory activity assay (Ser2 phosphorylation of RNA polymerase II subunit B1 CTD in MDA-MB-231 cells). It counts as cell-based. The arrangement: using MDA-MB-231 breast cancer cells; endogenous in cells; host or cells: MDA-MB-231. On the procedure:
MDA-MB-231 cells were dispensed into a 96-well plate at 100 µL of cell suspension per well using L-15 (Invitrogen) medium containing 10 % FBS, followed by overnight incubation in a cell incubator at 37 °C and 0 % CO2. The next day, each Example compound dissolved in DMSO across 9 concentration ranges and a DMSO control group were treated on the MDA-MB-231 cells at 37 °C and 0 % CO2 for 6 hours. After the compound treatment, the medium in the 96-well plate was removed, and 60 µL of a fixing solution (4.0 % paraformaldehyde in PBS) was added to each well, followed by standing for 20 minutes. After removing the fixing solution and washing with PBS, 60 µL of PBS containing 0.1 % Triton X-100 was dispensed into each well, followed by shaking at room temperature for 15 minutes. After washing with PBS, 100 µL of blocking buffer was added, followed by shaking at room temperature for 1 hour. After removing the blocking buffer, primary antibodies, which are RNA polymerase II subunit B1 phospho-Ser2 (1:500, Cell signaling technology) and RNA polymerase II subunit B1 carboxy-terminal domain (1:200, Cell signaling technology), were added at 60 µL per well and reacted overnight at 4 °C. After adding 150 µL of PBS containing 0.1 % Triton X-100 and washing at least twice by shaking at room temperature for 5 minutes, 60 µL of a secondary antibody was added, followed by shaking at room temperature for 1 hour while blocking light. After adding 150 µL of PBS containing 0.1 % Triton X-100 and washing at least twice by shaking at room temperature for 5 minutes, 150 µL of PBS was added again, followed by washing at least twice by shaking at room temperature for 5 minutes. The plate was scanned using a Li-COR Odyssey machine with the wells filled with PBS. IC50 values were calculated by fitting a dose-response curve using a 4-parameter model of Prism (Graphpad) software.

Setting [4] is: kinase reaction 120 minutes, 33P-gamma-ATP, read-out: CDK12 IC50.
Where [5] appears, read: kinase reaction 120 minutes, 33P-gamma-ATP, read-out: CDK13 IC50.
[6] abbreviates: MDA-MB-231 cells, 6 hours treatment, read-out: pRpbl CTD S2 IC50.

pIC50: −log10 of the molar value. Where two headings read alike, the source gives them in different places.

T1 sequence (Q9NYV4 whole entry, species assumed): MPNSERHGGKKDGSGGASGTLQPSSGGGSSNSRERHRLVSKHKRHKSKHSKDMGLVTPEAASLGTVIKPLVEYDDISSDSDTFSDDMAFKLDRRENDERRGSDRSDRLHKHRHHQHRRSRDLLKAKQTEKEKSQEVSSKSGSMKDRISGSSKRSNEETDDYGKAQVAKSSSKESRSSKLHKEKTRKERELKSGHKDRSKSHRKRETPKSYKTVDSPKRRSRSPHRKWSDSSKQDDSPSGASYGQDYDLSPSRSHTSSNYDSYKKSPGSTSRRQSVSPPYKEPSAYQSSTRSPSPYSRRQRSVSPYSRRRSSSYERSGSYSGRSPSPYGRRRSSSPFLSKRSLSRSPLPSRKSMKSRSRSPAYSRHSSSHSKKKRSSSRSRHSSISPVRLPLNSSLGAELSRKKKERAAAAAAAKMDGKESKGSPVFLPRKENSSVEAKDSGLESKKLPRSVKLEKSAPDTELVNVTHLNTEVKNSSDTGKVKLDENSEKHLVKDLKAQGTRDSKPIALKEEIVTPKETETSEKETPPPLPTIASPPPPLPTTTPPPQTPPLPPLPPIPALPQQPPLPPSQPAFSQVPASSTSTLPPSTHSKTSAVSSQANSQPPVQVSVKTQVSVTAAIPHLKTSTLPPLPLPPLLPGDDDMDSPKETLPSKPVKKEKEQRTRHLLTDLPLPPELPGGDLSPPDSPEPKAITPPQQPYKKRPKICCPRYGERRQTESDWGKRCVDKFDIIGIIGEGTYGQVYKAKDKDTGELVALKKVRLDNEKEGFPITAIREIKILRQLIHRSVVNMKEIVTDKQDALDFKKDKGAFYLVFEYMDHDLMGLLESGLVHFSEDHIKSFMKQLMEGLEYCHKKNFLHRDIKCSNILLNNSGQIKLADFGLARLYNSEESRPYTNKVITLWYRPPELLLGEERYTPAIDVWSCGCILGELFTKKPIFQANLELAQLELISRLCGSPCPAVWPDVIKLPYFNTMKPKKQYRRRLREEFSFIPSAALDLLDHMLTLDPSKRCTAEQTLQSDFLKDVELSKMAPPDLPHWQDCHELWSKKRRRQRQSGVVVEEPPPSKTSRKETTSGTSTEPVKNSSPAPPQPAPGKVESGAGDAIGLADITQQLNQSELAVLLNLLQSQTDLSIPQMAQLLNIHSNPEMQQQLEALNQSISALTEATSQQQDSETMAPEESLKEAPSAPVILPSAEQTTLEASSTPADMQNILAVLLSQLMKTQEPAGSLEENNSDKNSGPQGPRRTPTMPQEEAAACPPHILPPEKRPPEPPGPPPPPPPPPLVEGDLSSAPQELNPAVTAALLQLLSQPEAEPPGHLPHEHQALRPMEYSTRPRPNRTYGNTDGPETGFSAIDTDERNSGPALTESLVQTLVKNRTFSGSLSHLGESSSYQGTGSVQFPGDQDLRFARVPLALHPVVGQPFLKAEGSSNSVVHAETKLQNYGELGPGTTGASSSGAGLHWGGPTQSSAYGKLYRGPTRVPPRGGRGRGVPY
T1 sequence (O75909 whole entry partner, species assumed): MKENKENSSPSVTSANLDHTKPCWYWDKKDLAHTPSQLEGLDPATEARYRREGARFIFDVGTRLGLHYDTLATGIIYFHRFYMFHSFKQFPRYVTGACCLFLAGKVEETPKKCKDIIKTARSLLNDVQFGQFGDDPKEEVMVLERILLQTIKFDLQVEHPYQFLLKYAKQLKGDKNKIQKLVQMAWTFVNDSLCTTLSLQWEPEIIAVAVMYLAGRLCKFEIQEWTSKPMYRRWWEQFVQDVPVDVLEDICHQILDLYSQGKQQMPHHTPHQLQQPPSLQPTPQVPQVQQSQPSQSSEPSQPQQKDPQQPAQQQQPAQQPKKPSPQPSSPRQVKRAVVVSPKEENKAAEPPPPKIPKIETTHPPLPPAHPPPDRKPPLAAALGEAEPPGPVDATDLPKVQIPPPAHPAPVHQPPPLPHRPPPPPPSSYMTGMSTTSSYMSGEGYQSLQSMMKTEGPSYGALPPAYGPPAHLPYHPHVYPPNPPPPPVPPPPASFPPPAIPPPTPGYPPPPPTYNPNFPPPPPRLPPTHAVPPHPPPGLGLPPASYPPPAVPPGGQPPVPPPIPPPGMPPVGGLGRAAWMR
CDK13, sequence (Q14004 whole entry, species assumed): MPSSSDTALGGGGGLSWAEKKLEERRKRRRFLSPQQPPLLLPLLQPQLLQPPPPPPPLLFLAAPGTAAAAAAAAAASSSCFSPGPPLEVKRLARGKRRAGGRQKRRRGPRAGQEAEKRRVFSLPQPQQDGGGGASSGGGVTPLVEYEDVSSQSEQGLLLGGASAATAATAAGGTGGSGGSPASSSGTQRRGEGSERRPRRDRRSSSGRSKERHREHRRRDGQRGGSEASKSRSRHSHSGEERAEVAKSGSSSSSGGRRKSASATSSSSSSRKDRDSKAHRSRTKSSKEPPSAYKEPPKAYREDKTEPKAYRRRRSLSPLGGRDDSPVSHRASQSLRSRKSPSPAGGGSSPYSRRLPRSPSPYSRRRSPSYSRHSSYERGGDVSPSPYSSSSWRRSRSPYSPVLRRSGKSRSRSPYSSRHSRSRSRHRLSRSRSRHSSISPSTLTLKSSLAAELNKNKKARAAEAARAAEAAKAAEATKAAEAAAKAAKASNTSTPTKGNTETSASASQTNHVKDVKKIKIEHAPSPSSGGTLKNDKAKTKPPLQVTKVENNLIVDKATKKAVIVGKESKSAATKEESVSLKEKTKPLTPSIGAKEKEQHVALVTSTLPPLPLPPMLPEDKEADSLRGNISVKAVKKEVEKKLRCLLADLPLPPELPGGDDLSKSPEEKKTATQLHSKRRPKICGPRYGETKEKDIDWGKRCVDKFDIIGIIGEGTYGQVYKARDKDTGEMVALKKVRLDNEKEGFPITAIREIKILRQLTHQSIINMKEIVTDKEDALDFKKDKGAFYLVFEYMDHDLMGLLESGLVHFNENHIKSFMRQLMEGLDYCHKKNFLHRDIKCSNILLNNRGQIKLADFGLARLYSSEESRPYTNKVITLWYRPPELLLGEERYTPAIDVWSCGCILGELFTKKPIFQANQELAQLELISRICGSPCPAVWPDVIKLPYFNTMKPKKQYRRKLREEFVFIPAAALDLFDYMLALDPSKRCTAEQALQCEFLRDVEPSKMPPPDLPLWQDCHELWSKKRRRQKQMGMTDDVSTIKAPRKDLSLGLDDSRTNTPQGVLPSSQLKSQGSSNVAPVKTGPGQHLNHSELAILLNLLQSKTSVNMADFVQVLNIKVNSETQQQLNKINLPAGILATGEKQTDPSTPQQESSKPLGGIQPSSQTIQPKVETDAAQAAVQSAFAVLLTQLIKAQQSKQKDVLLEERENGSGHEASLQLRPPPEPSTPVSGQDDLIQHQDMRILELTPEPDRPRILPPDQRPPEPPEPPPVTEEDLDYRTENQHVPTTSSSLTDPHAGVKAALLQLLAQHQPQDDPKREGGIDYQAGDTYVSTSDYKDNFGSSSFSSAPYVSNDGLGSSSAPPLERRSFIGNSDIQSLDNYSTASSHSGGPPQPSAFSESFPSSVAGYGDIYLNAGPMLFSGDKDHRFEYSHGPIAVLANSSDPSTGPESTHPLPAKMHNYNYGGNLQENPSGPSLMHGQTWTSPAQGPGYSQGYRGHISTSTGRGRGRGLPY
CDK13, sequence (O75909 whole entry partner, species assumed): as the sequence (O75909 whole entry partner, species assumed) above

With `Fc1ccc2nc(CNc3cc(N4CCOCC4)nn4c(I)cnc34)[nH]c2c1F` [Example 26, N-((6,7-difluoro-1H-benzo[d]imidazol-2-yl)methyl)-3-iodo-6-morpholinoimidazo[1.2-b]pyridazin-8-amine], the negative logarithm of the IC50 (pIC50) is < 6.30 at CDK12 [1], < 6.30 on CDK13, < 6.30 in assay [2] and < 5.52 at CDK12 [3].
For the molecule `FC(F)(F)c1cnc2c(NCc3nc4cc(Cl)c(Cl)cc4[nH]3)cc(N3CC4CCC3CO4)nn12` (centres unmarked) [Example 43, 6-(2-oxa-5-azabicyclo[2.2.2]octan-5-yl)-N-((5,6-dichloro-1H-benzo[d]imidazol-2-yl)methyl)-3-(trifluoromethyl)imidazo[1,2-b]pyridazin-8-amine], the pIC50 on CDK12 [1] (setting [4]) is 6.30 to 7.00; on CDK13 (setting [5]), 6.30 to 7.00; in assay [2], 6.30 to 7.30; on CDK12 [3] (setting [6]), 5.52 to 6.52.
With `FC(F)(F)c1cnc2c(NCc3cn4ncccc4n3)cc(N3CCOCC3)nn12` [Example 85, N-(imidazo[1,2-b]pyridazin-2-ylmethyl)-6-morpholino-3-(trifluoromethyl)imidazo[1,2-b]pyridazin-8-amine], the pIC50 on CDK12 [1] (setting [4]) is > 7.00; on CDK13, > 7.00; in assay [2], < 6.30; on CDK12 [3] (setting [6]), < 5.52.
Take `O=C(CO)C1CCN(c2cc(NCc3nc4cc(Cl)c(Cl)cc4[nH]3)c3ncc(C(F)(F)F)n3n2)CC1` [Example 114, 1-(1-(8-(((5,6-dichloro-1H-benzo[d]imidazol-2-yl)methyl)amino)-3-(trifluoromethyl)imidazo[1,2-b]pyridazin-6-yl)piperidin-4-yl)-2-hydroxyethan-1-one]: the pIC50 is > 7.00 on CDK12 [1] (setting [4]), > 7.00 on CDK13, ≥ 7.30 in assay [2] and > 6.52 on CDK12 [3] (setting [6]).
`Fc1ccc2nc(CNc3cc(N4CC5CCC(C4)O5)nn4c(C(F)(F)F)cnc34)[nH]c2c1F` [Example 9]: the negative logarithm of the IC50 (pIC50) at CDK12 [1] is > 7.00; at CDK13 (setting [5]) it was > 7.00; in assay [2], ≥ 7.30; on CDK12 [3] (setting [6]) it was > 6.52.
For `OC1(C2CN(c3cc(NCc4nc5cc(Cl)c(Cl)cc5[nH]4)c4ncc(C(F)(F)F)n4n3)C2)CC1` [Example 50, 1-(1-(8-(((5,6-dichloro-1H-benzo[d]imidazol-2-yl)methyl)amino)-3-(trifluoromethyl)imidazo[1,2-b]pyridazin-6-yl)azetidin-3-yl)cyclopropan-1-ol], the pIC50 on CDK12 [1] (setting [4]) is 6.30 to 7.00; on CDK13 (setting [5]), 6.30 to 7.00; in assay [2], 6.30 to 7.30; on CDK12 [3] (setting [6]) it was 5.52 to 6.52.
On to `NC1CCN(c2cc(NCc3nc4cc(F)c(F)cc4[nH]3)c3ncc(C(F)(F)F)n3n2)CC1` [Example 111, 6-(4-aminopiperidin-1-yl)-N-((5,6-difluoro-1H-benzo[d]imidazol-2-yl)methyl)-3-(trifluoromethyl)imidazo[1,2-b]pyridazin-8-amine], for which the pIC50 on CDK12 [1] (setting [4]) is > 7.00; on CDK13 (setting [5]), > 7.00; in assay [2], ≥ 7.30; at CDK12 [3] (setting [6]) it was > 6.52.
`FC(F)(F)c1cnc2c(NCc3nc4cc(Cl)c(Cl)cc4[nH]3)cc(N3C4CNCC3C4)nn12` [Example 99, 6-(3,6-diazabicyclo[3.1.1]heptan-6-yl)-N-((5,6-dichloro-1H-benzo[d]imidazol-2-yl)methyl)-3-(trifluoromethyl)imidazo[1,2-b]pyridazin-8-amine]: the pIC50 on CDK12 [1] (setting [4]) is 6.30 to 7.00; at CDK13 (setting [5]), 6.30 to 7.00; in assay [2] it was ≥ 7.30; on CDK12 [3] (setting [6]) it was > 6.52.
Consider `N#CC1(O)CCN(c2cc(NCc3nc4cc(Cl)c(Cl)cc4[nH]3)c3ncc(C(F)(F)F)n3n2)C1` (centres unmarked) [Example 61, 1-(8-(((5,6-dichloro-1H-benzo[d]imidazol-2-yl)methyl)amino)-3-(trifluoromethyl)imidazo[1,2-b]pyridazin-6-yl)-3-hydroxypyrrolidine-3-carbonitrile], for which the pIC50 at CDK12 [1] (setting [4]) is 6.30 to 7.00; on CDK13 (setting [5]) it was 6.30 to 7.00; in assay [2], ≥ 7.30; on CDK12 [3] (setting [6]), > 6.52.
Turning to `Fc1ccc2nc(CNc3cc(N4CCOCC4)nn4c(C#CC5CC5)cnc34)[nH]c2c1F` [Example 25, 3-(cyclopropylethynyl)-N-((6,7-difluoro-1H-benzo[d]imidazol-2-yl)methyl)-6-morpholinoimidazo[1,2-b]pyridazin-8-amine], the pIC50 at CDK12 [1] (setting [4]) is < 6.30; at CDK13 (setting [5]), < 6.30; in assay [2], < 6.30; at CDK12 [3] (setting [6]), < 5.52.
With `N#CC1CCN(c2cc(NCc3nc4ccc(F)c(F)c4[nH]3)c3ncc(C(F)(F)F)n3n2)CC1` [Example 56, 1-(8-(((6,7-difluoro-1H-benzo[d]imidazol-2-yl)methyl)amino)-3-(trifluoromethyl)imidazo[1,2-b]pyridazin-6-yl)piperidine-4-carbonitrile], the pIC50 was > 7.00 on CDK12 [1] (setting [4]), > 7.00 at CDK13 (setting [5]), ≥ 7.30 in assay [2] and 5.52 to 6.52 on CDK12 [3] (setting [6]).
In the case of `FC(F)(F)c1cnc2c(NCc3cc4ncccn4n3)cc(N3CCOCC3)nn12` [Example 89, 6-morpholino-N-(pyrazolo[1,5-a]pyrimidin-2-ylmethyl)-3-(trifluoromethyl)imidazo[1,2-b]pyridazin-8-amine], the negative-log IC50 (pIC50) on CDK12 [1] (setting [4]) is > 7.00; at CDK13 it was > 7.00; in assay [2], < 6.30; at CDK12 [3] (setting [6]), < 5.52.
Turning to `NC(=O)C1CCN(c2cc(NCc3nc4cc(Cl)c(Cl)cc4[nH]3)c3ncc(C(F)(F)F)n3n2)CC1` [Example 67, 1-(8-(((5,6-dichloro-1H-benzo[d]imidazol-2-yl)methyl)amino)-3-(trifluoromethyl)imidazo[1,2-b]pyridazin-6-yl)piperidine-4-carboxamide], the pIC50 at CDK12 [1] (setting [4]) is > 7.00; at CDK13 (setting [5]), > 7.00; in assay [2] it was 6.30 to 7.30; at CDK12 [3] (setting [6]) it was > 6.52.
On to `CC1(O)CC2CCC(C1)N2c1cc(NCc2nc3cc(Cl)c(Cl)cc3[nH]2)c2ncc(C(F)(F)F)n2n1` (centres unmarked) [Example 34], for which the pIC50 is < 6.30 at CDK12 [1], 6.30 to 7.00 at CDK13 (setting [5]), 6.30 to 7.30 in assay [2] and > 6.52 on CDK12 [3] (setting [6]).
Turning to `FC(F)(F)c1cnc2c(NCc3nc4cc(Cl)c(Cl)cc4[nH]3)cc(N3CC4CC(C4)C3)nn12` [Example 31, 6-(3-azabicyclo[3.1.1]heptan-3-yl)-N-((5,6-dichloro-1H-benzo[d]imidazol-2-yl)methyl)-3-(trifluoromethyl)imidazo[1,2-b]pyridazin-8-amine], the negative-log IC50 (pIC50) on CDK12 [1] (setting [4]) was < 6.30; at CDK13 (setting [5]) it was 6.30 to 7.00; in assay [2], < 6.30; at CDK12 [3] (setting [6]), 5.52 to 6.52.
Turning to `Cc1cnc2c(NCc3nc4ccc(F)c(F)c4[nH]3)cc(N3CCOCC3)nn12` [Example 4, N-((6,7-difluoro-1H-benzo[d]imidazol-2-yl)methyl)-3-methyl-6-morpholinoimidazo[1,2-b]pyridazin-8-amine], the pIC50 was < 6.30 at CDK12 [1] (setting [4]), 6.30 to 7.00 at CDK13 (setting [5]), < 6.30 in assay [2] and < 5.52 on CDK12 [3] (setting [6]).
Consider `CN1C2CCC1CN(c1cc(NCc3nc4cc(Cl)c(Cl)cc4[nH]3)c3ncc(C(F)(F)F)n3n1)C2` [Example 33], for which the negative logarithm of the IC50 (pIC50) on CDK12 [1] (setting [4]) is > 7.00; at CDK13 (setting [5]), > 7.00; in assay [2], ≥ 7.30; at CDK12 [3] (setting [6]), > 6.52.
